Legend:
Experiment in all cases: relative viability (nuclei count vs DMSO), 5 days (fraction); higher = more cells survive
Silmitasertib = compound: O=C(O)c1ccc2c(c1)nc(Nc1cccc(Cl)c1)c1ccncc12 [Silmitasertib]
Outline: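 On vehicle-anchored 1536-well plates, lung cancer cell lines held overnight at 37 °C were pinned with five library-drug doses (not always all listed) spaced by √10. With no medium change over 5 days, they were then fixed, permeabilised and Hoechst-stained in one step and imaged at 4×. MetaXpress counted nuclei, and viability is the median across plates of treated-well over vehicle-well nuclei. Acceptance needed control CV below 25% and at least one doubling.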

[1] = compound: O=C(O)c1ccc2c(c1)nc(Nc1cccc(Cl)c1)c1ccncc12 [Silmitasertib] + CC(C)C[C@H](NC(=O)[C@H](Cc1ccccc1)NC(=O)c1cnccn1)B(O)O [Bortezomib] (partner 0.002 µM)
Outline: (§1)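 After 5 days of treatment, lung cancer cells in 1536-well plates were fixed and stained in a single step (final 0.05% Triton X-100, 1% formaldehyde, 1 ug/ml Hoechst) and their nuclei counted on 4× images. Treatment had been applied by pin tool the day after seeding as one drug alone or as a fixed anchor-drug dose with five library-drug doses (not always all listed) in √10 steps. Relative viability is the nuclei count of treated wells divided by that of vehicle wells, and values are medians of duplicate plates.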

[2] = compound: O=C(O)c1ccc2c(c1)nc(Nc1cccc(Cl)c1)c1ccncc12 [Silmitasertib] + CS(=O)(=O)N1CCN(Cc2cc3nc(-c4cccc5[nH]ncc45)nc(N4CCOCC4)c3s2)CC1 [Pictilisib] (partner 1 µM)
Outline: as §1

[3] = compound: O=C(O)c1ccc2c(c1)nc(Nc1cccc(Cl)c1)c1ccncc12 [Silmitasertib] + CC1(C)CCC(c2ccc(Cl)cc2)=C(CN2CCN(c3ccc(C(=O)NS(=O)(=O)c4ccc(N[C@H](CCN5CCOCC5)CSc5ccccc5)c(S(=O)(=O)C(F)(F)F)c4)cc3)CC2)C1 [Navitoclax] (partner 0.5 µM)
Outline: as §1

[4] = compound: O=C(O)c1ccc2c(c1)nc(Nc1cccc(Cl)c1)c1ccncc12 [Silmitasertib] + COc1cc2c(Oc3ccc(NC(=O)C4(C(=O)Nc5ccc(F)cc5)CC4)cc3F)ccnc2cc1OCCCN1CCOCC1 [Foretinib] (partner 0.25 µM)
Outline: as §1

Silmitasertib + Olaparib = compound: O=C(O)c1ccc2c(c1)nc(Nc1cccc(Cl)c1)c1ccncc12 [Silmitasertib] + O=C(c1cc(Cc2n[nH]c(=O)c3ccccc23)ccc1F)N1CCN(C(=O)C2CC2)CC1 [Olaparib] (partner 8 µM)
Outline: as §1

[5] = compound: O=C(O)c1ccc2c(c1)nc(Nc1cccc(Cl)c1)c1ccncc12 [Silmitasertib] + CS(=O)(=O)CCNCc1ccc(-c2ccc3ncnc(Nc4ccc(OCc5cccc(F)c5)c(Cl)c4)c3c2)o1 [Lapatinib] (partner 2 µM)
Outline: as §1

[6] = compound: O=C(O)c1ccc2c(c1)nc(Nc1cccc(Cl)c1)c1ccncc12 [Silmitasertib] + C[C@@H](Oc1cc(-c2cnn(C3CCNCC3)c2)cnc1N)c1c(Cl)ccc(F)c1Cl [Crizotinib] (partner 1 µM)
Outline: as §1

[7] = compound: O=C(O)c1ccc2c(c1)nc(Nc1cccc(Cl)c1)c1ccncc12 [Silmitasertib] + C[C@]1(O)C[C@@H](c2nc(-c3ccc4ccc(-c5ccccc5)nc4c3)c3c(N)nccn32)C1 [Linsitinib] (partner 1 µM)
Outline: as §1

[8] = compound: O=C(O)c1ccc2c(c1)nc(Nc1cccc(Cl)c1)c1ccncc12 [Silmitasertib] + Cc1nc(NC(=O)N2CCC[C@H]2C(N)=O)sc1-c1ccnc(C(C)(C)C(F)(F)F)c1 [Alpelisib] (partner 2 µM)
Outline: as §1

## EBC-1
Silmitasertib; 0.04 µM
  relative viability: 1.09
Silmitasertib; 0.4 µM
  relative viability: 0.693
Silmitasertib; 1.265 µM
  relative viability: 0.591
Silmitasertib; 4 µM
  relative viability: 0.29
[1]; first compound 0.04 µM
  relative viability: 0.652
[1]; first compound 0.4 µM
  relative viability: 0.39
[1]; first compound 1.265 µM
  relative viability: 0.347
[1]; first compound 4 µM
  relative viability: 0.239
[2]; first compound 0.04 µM
  relative viability: 0.534
[2]; first compound 0.4 µM
  relative viability: 0.375
[2]; first compound 1.265 µM
  relative viability: 0.178
[2]; first compound 4 µM
  relative viability: 0.139
[3]; first compound 0.04 µM
  relative viability: 0.542
[3]; first compound 0.4 µM
  relative viability: 0.154
[3]; first compound 1.265 µM
  relative viability: 0.134
[3]; first compound 4 µM
  relative viability: 0.168
[4]; first compound 0.04 µM
  relative viability: 0.0961
[4]; first compound 0.4 µM
  relative viability: 0.0977
[4]; first compound 1.265 µM
  relative viability: 0.0913
[4]; first compound 4 µM
  relative viability: 0.0847
Silmitasertib + Olaparib; first compound 0.04 µM
  relative viability: 0.796
Silmitasertib + Olaparib; first compound 0.4 µM
  relative viability: 0.371
Silmitasertib + Olaparib; first compound 1.265 µM
  relative viability: 0.423
Silmitasertib + Olaparib; first compound 4 µM
  relative viability: 0.212
[5]; first compound 0.04 µM
  relative viability: 0.225
[5]; first compound 0.4 µM
  relative viability: 0.185
[5]; first compound 1.265 µM
  relative viability: 0.2
[5]; first compound 4 µM
  relative viability: 0.192
[6]; first compound 0.04 µM
  relative viability: 0.189
[6]; first compound 0.4 µM
  relative viability: 0.16
[6]; first compound 1.265 µM
  relative viability: 0.171
[6]; first compound 4 µM
  relative viability: 0.157
[7]; first compound 0.04 µM
  relative viability: 0.982
[7]; first compound 0.4 µM
  relative viability: 0.655
[7]; first compound 1.265 µM
  relative viability: 0.471
[7]; first compound 4 µM
  relative viability: 0.222
[8]; first compound 0.04 µM
  relative viability: 0.925
[8]; first compound 0.4 µM
  relative viability: 0.601
[8]; first compound 1.265 µM
  relative viability: 0.262
[8]; first compound 4 µM
  relative viability: 0.211
